This is an account of results in patent publication US20170143712A1, “Methods of Treating Cancers, Immune and Autoimmune Diseases, and Inflammatory Diseases Based on BTK Occupancy and BTK Resynthesis Rate” (Acerta Pharma B.V., priority 2014, published 2017).

The nature of data set [1]: Rat pharmacokinetics, oral gavage vs dietary administration in chow. It is filed as in vivo. Here is the method:
To evaluate the effects of continuous low dose administration versus oral gavage administration of Formula (II), six male rats per group were treated with oral gavage administration of vehicle or Formula (II) at a dose of 30 mg/kg/day for 14 days. Six male rats per group were treated with dietary Formula (II) in chow at concentrations of 100 and 500 ppm; a control group (no vehicle, no chow) was also included in the study. All animals were evaluated for pharmacokinetics on Day 14, during the night cycle to accommodate the dietary groups. The spleens were collected at necroscopy and splenocytes were harvested and cryopreserved for BTK target occupancy analysis. The presence of inactivated BTK in normal splenocytes was measured using a BTK active-site specific probe in an ELISA assay. Plasma concentrations of Formula (II) were measured using liquid chromatography/mass spectroscopy; pharmacokinetic parameters were estimated using WinNonlin (Pharsight, Cetara).

Data set [2] deals with T1, BTK (Canis lupus familiaris, UniProt A0A8I3P3Z9).
T1 construct: Purified peripheral B-cells and FNA samples were snap-frozen for measurement of BTK target occupancy; from tissue; host or cells: peripheral blood CD21+ B cells and lymph node fine needle aspirates of companion dogs with spontaneous lymphoma, dosed in vivo
T1 sequence (A0A8I3P3Z9 1-664): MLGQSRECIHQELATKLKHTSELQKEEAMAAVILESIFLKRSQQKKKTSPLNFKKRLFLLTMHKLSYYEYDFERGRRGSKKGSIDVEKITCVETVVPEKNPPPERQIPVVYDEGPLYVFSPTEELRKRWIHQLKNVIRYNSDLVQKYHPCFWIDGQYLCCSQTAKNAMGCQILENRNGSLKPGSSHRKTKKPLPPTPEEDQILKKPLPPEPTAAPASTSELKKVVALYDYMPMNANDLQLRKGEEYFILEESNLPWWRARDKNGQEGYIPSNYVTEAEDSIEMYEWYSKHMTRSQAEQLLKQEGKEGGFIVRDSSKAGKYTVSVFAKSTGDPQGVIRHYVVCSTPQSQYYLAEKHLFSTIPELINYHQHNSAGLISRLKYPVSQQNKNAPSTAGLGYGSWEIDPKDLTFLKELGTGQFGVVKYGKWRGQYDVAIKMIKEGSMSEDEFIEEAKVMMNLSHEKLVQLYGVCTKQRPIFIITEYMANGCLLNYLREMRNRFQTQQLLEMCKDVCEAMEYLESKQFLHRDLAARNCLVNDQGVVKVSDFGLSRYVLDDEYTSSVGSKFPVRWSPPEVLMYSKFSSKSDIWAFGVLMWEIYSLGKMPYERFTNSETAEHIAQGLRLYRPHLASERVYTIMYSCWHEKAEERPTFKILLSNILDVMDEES
Description: BTK target occupancy in peripheral B-cells and lymph node fine needle aspirates of dogs with spontaneous lymphoma. It is filed as in vivo, dog. How it is done: Dogs were administered Formula (II) orally once daily and evaluations occurred every 7 days for the first 4 weeks of the study, then every 14 days thereafter. PBMCs and lymph node fine needle aspirates (lymphoma patients only) were obtained for PD analysis on day 0 at time 0 hr and 3 hr, and again at pre-dose (Cmin) on day 7 of drug administration. In each cohort, PK analysis was performed in 2 dogs on day 14 of the study consisting of blood sampling at 0, 0.5, 1, 2, 3, 4, 6, 8, 12, and 24 hr following drug administration.
Peripheral blood mononuclear cells (PBMCs) were isolated from blood and the CD21+ B-cells were enriched by positive magnetic selection. For fine needle aspiration (FNA) samples, erythrocytes were lysed with ammonium chloride lysis buffer. Purified peripheral B-cells and FNA samples were snap-frozen for measurement of BTK target occupancy. BTK target occupancy was measured using an ELISA with anti-BTK as a capture antibody and a biotinylated active site probe for BTK, followed by streptavidin-HRP as a detection reagent. The ex vivo incubation with Formula (II) provided a baseline signal for each sample. BTK occupancy in the B cell lysates from peripheral B-cells and lymph node FNA preparations was calculated as a percentage of the control after correction for baseline chemoluminescence. All samples were run in quadruplicate.

The target of data set [3] is BTK (Homo sapiens, UniProt Q06187). Description: PK/PD model fit and simulation of BTK occupancy and pBTK inhibition. The settings on record: for BTK resynthesis rate (modeled estimate): 15 mg QD.
BTK (Homo sapiens, UniProt Q06187), sequence (Q06187 whole entry): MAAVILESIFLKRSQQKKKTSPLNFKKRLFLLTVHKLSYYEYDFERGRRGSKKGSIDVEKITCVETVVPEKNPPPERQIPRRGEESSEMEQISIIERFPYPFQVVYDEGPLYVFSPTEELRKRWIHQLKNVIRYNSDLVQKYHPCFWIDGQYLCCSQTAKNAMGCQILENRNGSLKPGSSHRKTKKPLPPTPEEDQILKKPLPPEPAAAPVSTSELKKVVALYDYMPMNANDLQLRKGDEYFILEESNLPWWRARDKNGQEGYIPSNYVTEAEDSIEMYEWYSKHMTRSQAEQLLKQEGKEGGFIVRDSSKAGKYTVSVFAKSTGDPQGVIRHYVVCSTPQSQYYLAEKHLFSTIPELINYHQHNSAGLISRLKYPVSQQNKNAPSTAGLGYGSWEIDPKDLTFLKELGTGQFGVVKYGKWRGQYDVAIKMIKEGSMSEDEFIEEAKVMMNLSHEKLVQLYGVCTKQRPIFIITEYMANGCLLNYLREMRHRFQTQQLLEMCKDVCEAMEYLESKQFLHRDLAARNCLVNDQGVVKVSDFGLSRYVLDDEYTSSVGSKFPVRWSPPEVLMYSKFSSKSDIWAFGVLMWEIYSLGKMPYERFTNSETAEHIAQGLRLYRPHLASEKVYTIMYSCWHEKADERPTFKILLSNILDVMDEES
The mark [4] stands for this setting: 3 hr after administration, all cohorts.

Regarding `CC#CC(=O)N1CCC[C@H]1c1nc(-c2ccc(C(=O)Nc3ccccn3)cc2)c2c(N)nccn12` [Formula (II), (S)-4-(8-amino-3-(1-(but-2-ynoyl)pyrrolidin-2-yl)imidazo[1,5-a]pyrazin-1-yl)-N-(pyridin-2-yl)benzamide], in data set [1] (dietary 100 and 500 ppm in chow, Day 14), the “Cmax as fraction of the AUC0-18 value” is reported as 1/10. The Cmax (in general, the maximum level reached in the sampled fluid or tissue) in data set [1] (rat, plasma, oral gavage 30 mg/kg/day, Day 14, male rats) came out at 506 ng/mL. For the same compound, the AUC(0-t) in data set [1] (rat, plasma, oral gavage 30 mg/kg/day, Day 14, male rats, read-out: AUC0-12) was determined as 864 ng·h/mL. At BTK [2] (setting [4]), the “BTK occupancy in lymph node FNAs” value is reported as above 90% and the “BTK occupancy in peripheral B-cells” value was at least 90%. Besides, the “BTK occupancy in peripheral blood sample” value on BTK [2] (day 7 pre-dose, steady state (24 hr QD or 12 hr BID after dose)) is listed as “Full BTK occupancy”. Further, the “BTK occupancy in tumor bearing lymph nodes” value at BTK [2] (pre-dose Day 7) is given as 82-88%. Moreover, the “k4,1 (model rate constant)” value on BTK [3] (15 mg QD model fit) is listed as 0.91. The “BTK resynthesis rate (modeled estimate)” value on BTK [3] (after the first 48 hours) was 0.04. For the same compound, on BTK [3] (first 48 hours), the “BTK resynthesis rate (modeled estimate)” value is given as 0.1.
